This is an account of results in PMC8286840, “Identifying SARS-CoV-2 antiviral compounds by screening for small molecule inhibitors of Nsp3 papain-like protease” (Biochemical Journal, 2021).

Counter-ions that a name gives are not always drawn. Like-named read-outs stand apart in the source and are kept apart here.

Test [1] addresses T1, SARS-CoV-2 PLpro (nsp3 1564–1878) (Severe acute respiratory syndrome coronavirus 2, UniProt P0DTD1). In words: biochemical. Further details: FRET-quenched peptide (Pro3) cleavage by PLpro, 10 min pre-incubation, slope over 20 min, normalised to no-compound control. The note with it: low concentration screen, read-out: % of control remaining.
In test [2] the target is T1, SARS-CoV-2 PLpro (nsp3 1564–1878). In words: biochemical. Further details: FRET-quenched peptide (Pro3) cleavage by PLpro, 10 min pre-incubation, slope over 20 min, normalised to no-compound control. Particulars: high concentration screen, read-out: % of control remaining.

In the case of `Cc1cc2c(s1)Nc1ccccc1N=C2N1CCN(C)CC1` [Olanzapine], the remaining activity at 1.25 µM in test [1] (Well no.=1828) is 93.3%; in test [1] (Well no.=8193), 106%. In addition, the values for the remaining activity at 3.75 µM in test [2] (Well no.=1828) and in test [2] (Well no.=8193) were 95.2% and 111%, respectively.

Take `CC(/C=C1\SC(=S)N(CC(=O)O)C1=O)=C\c1ccccc1` [Epalrestat]: the remaining activity at 1.25 µM in test [1] (Well no.=5046) stood at 100%. Moreover, in test [2] (Well no.=5046), the remaining activity at 3.75 µM stood at 104%.

As for `Cc1cnc(-c2cc(N3CCN(C(=O)CCS(C)(=O)=O)CC3)ncc2Cl)c(C)c1` [PF-5274857], the remaining activity at 1.25 µM in test [1] (Well no.=4739) is 99.5%. Besides, in test [2] (Well no.=4739), the remaining activity at 3.75 µM stood at 102%.

In the case of `CN1c2cc3c(cc2N=C(c2ccc(C(=O)O)cc2)c2ccccc21)C(C)(C)CCC3(C)C` [4-(5,7,7,10,10-pentamethyl-7,8,9,10-tetrahydro-5H-naphtho[2,3-b][1,4]benzodiazepin-13-yl)benzoic acid], the remaining activity at 1.25 µM in test [1] (Well no.=5556) is 104%. Further, in test [2] (Well no.=5556), the remaining activity at 3.75 µM came to 100%.

`CC1=C(/C=C/C(C)=C\C=C\C(C)=C\C(=O)O)C(C)(C)CCC1` [9-cis Retinoic acid]: the remaining activity at 1.25 µM in test [1] (Well no.=3136) is 98.3%; in test [1] (Well no.=4428) it was 103%. Also, the remaining activity at 3.75 µM in test [2] (Well no.=3136) was 95.8%; in test [2] (Well no.=4428) it was 102%.

On to `CCN(CC)C(=O)c1ccc(C2=CC3(CCNCC3)Oc3cccc(O)c32)cc1` [ADL5859 HCl], for which the remaining activity at 1.25 µM in test [1] (Well no.=5051) is 101%. In addition, the remaining activity at 3.75 µM in test [2] (Well no.=5051) came out at 98.3%.

As for `N[C@H](CO)C(=O)O` [D-Serine], the remaining activity at 1.25 µM in test [1] (Well no.=1362) worked out at 92.8%. The remaining activity at 3.75 µM in test [2] (Well no.=1362) turned out to be 93.5%.

As to `COc1cc(F)c(C(C)C)cc1-c1ccc(C(F)(F)F)cc1CN1C(=O)O[C@H](c2cc(C(F)(F)F)cc(C(F)(F)F)c2)[C@@H]1C` [Anacetrapib (MK-0859)], the remaining activity at 1.25 µM in test [1] (Well no.=5312) is 94.2%. In test [2] (Well no.=5312), the remaining activity at 3.75 µM is 93.1%.

With `O=c1cc(N2CCOCC2)oc2c(-c3ccccc3)cccc12` [LY 294002], in test [1] (Well no.=2465), the remaining activity at 1.25 µM was 101%. Further, in test [2] (Well no.=2465), the remaining activity at 3.75 µM was 102%.

As for `N/C(=N\N=C\c1ccc(-c2cccc([N+](=O)[O-])c2)o1)N[N+](=O)[O-]` [ERK Inhibitor III], in test [1] (Well no.=2422), the remaining activity at 1.25 µM is 101%. For the same compound, the remaining activity at 3.75 µM in test [2] (Well no.=2422) stood at 104%.

In the case of `C#CCN(C)CCCOc1ccc(Cl)cc1Cl` [Clorgyline hydrochloride], the remaining activity at 1.25 µM in test [1] (Well no.=878) was found to be 101%. Moreover, in test [2] (Well no.=878), the remaining activity at 3.75 µM stood at 102%.

Consider `COc1ccc([C@]2(O)CC[C@@H](N3CC[C@@H](NC(=O)CNC(=O)c4cccc(C(F)(F)F)c4)C3)CC2)cn1` [INCB 3284], for which, in test [1] (Well no.=8271), the remaining activity at 1.25 µM amounted to 102%. For the same compound, the remaining activity at 3.75 µM in test [2] (Well no.=8271) was 99.4%.

As for `Brc1c(NC2=NCCN2)ccc2nccnc12` [UK 14,304 (tartrate)], the remaining activity at 1.25 µM in test [1] (Well no.=6572) is 98.5%. For the same compound, in test [2] (Well no.=6572), the remaining activity at 3.75 µM worked out at 102%.

Take `O=C(Nc1ccc(Cl)cc1CN1C(=O)c2ccccc2C1=O)c1ccccc1O` [CPPHA]: the remaining activity at 1.25 µM in test [1] (Well no.=7243) is 101%. Further, the remaining activity at 3.75 µM in test [2] (Well no.=7243) stood at 97.3%.

On to `O=c1c(-c2ccc(O)cc2)coc2cc(O)cc(O)c12` [Genistein - 5,7-Dihydroxy-3-(4-hydroxyphenyl)-4H-1-benzopyran-4-one], for which the remaining activity at 1.25 µM in test [1] (Well no.=2342) is 95.4%. In addition, in test [2] (Well no.=2342), the remaining activity at 3.75 µM turned out to be 95.4%.

With `CC(C[N+](C)(C)C)OC(N)=O` (stereo not drawn) [Bethanechol (chloride)], the remaining activity at 1.25 µM in test [1] (Well no.=7565) was determined as 99.8%. Moreover, in test [2] (Well no.=7565), the remaining activity at 3.75 µM came out at 92.1%.

Turning to `CC(O)(CS(=O)(=O)c1ccc(F)cc1)C(=O)Nc1ccc(C#N)c(C(F)(F)F)c1` (stereo not drawn) [Bicalutamide], in test [1] (Well no.=1860), the remaining activity at 1.25 µM was 97.5%. In addition, in test [2] (Well no.=1860), the remaining activity at 3.75 µM amounted to 99.2%.

Consider `Cc1c(CC(=O)O)c2cccnc2n1Cc1ccc(S(C)(=O)=O)cc1C(F)(F)F` [Fevipiprant], for which the remaining activity at 1.25 µM in test [1] (Well no.=7767) stood at 106%. Besides, the remaining activity at 3.75 µM in test [2] (Well no.=7767) turned out to be 106%.

On to `C[C@]12C=CC(=O)C=C1CC[C@@H]1[C@@H]2[C@@H](O)C[C@@]2(C)[C@H]1CC[C@]2(O)C(=O)CO` [Prednisolone], for which the remaining activity at 1.25 µM in test [1] (Well no.=2141) was found to be 99.3%; in test [1] (Well no.=6605), 102%. The remaining activity at 3.75 µM in test [2] (Well no.=6605) stood at 102%.

In the case of `CN1CCc2c(cc(O)c(O)c2Cl)C(c2cccc(Cl)c2)C1` (stereo not drawn) [SKF 83565 hydrobromide], the remaining activity at 1.25 µM in test [1] (Well no.=1504) was 94.9%. Moreover, in test [2] (Well no.=1504), the remaining activity at 3.75 µM is 97.3%.

Turning to `NS(=O)(=O)c1cc2c(cc1Cl)NC(C(Cl)Cl)NS2(=O)=O` (stereo not drawn) [Trichlormethiazide], the remaining activity at 1.25 µM in test [1] (Well no.=8656) came out at 102%. Besides, the remaining activity at 3.75 µM in test [2] (Well no.=8656) amounted to 99.7%.

`C/C=C(\C)C(=O)N[C@@H](c1ccccc1)[C@@H](O)C(=O)O[C@H]1C[C@@]2(O)[C@@H](OC(=O)c3ccccc3)[C@@H]3[C@]4(OC(C)=O)CO[C@@H]4C[C@H](O)[C@@]3(C)C(=O)[C@H](OC(C)=O)C(=C1C)C2(C)C` [Cephalomannine]: the remaining activity at 1.25 µM in test [1] (Well no.=5204) worked out at 97.2%. Moreover, in test [2] (Well no.=5204), the remaining activity at 3.75 µM was 99.1%.

Consider `CC(C)CCn1c(CN2CCN(C(=O)C3CC3)CC2)nc2c1c(=O)n(C)c(=O)n2C` [NCT-501], for which the remaining activity at 1.25 µM in test [1] (Well no.=8532) is 105%. The remaining activity at 3.75 µM in test [2] (Well no.=8532) is 98.9%.

On to `CO[C@H]1O[C@@H]2O[C@@]3(C)CC[C@H]4[C@H](C)CC[C@@H]([C@H]1C)[C@@]24OO3` [Artemether (SM-224)], for which the remaining activity at 1.25 µM in test [1] (Well no.=5188) amounted to 94.9%. Further, in test [2] (Well no.=5188), the remaining activity at 3.75 µM came out at 97.4%.

Regarding `CCCCCCCCCCCCC/C=C/[C@@H](O)[C@H](CO)NCCCCCCCC` [C8 Ceramine], the remaining activity at 1.25 µM in test [1] (Well no.=4409) is 101%. In test [2] (Well no.=4409), the remaining activity at 3.75 µM turned out to be 95.2%.

Consider `COC(=O)[C@H]1[C@H]2C[C@H]3c4[nH]c5ccccc5c4CCN3C[C@@H]2CC[C@@H]1O` [Corynanthine], for which, in test [1] (Well no.=3795), the remaining activity at 1.25 µM came out at 97.4%. In addition, the remaining activity at 3.75 µM in test [2] (Well no.=3795) stood at 103%.

Consider `CC[C@@H](C)[C@@H](O)[C@H](C)C(=O)[C@H](C)/C=C(\C)C[C@H](C)[C@@H]1OC(=O)[C@H]1CC` [Ebelactone B], for which the remaining activity at 1.25 µM in test [1] (Well no.=3269) was 103%. The remaining activity at 3.75 µM in test [2] (Well no.=3269) stood at 104%.

As to `C[C@@H]1CN(CC(=O)Nc2ccc3c(c2)Cc2cccc(-c4cc(=O)cc(N5CCOCC5)o4)c2S3)C[C@H](C)O1` [KU-60019], the remaining activity at 1.25 µM in test [1] (Well no.=5299) was found to be 93.8%. The remaining activity at 3.75 µM in test [2] (Well no.=5299) turned out to be 85.8%.

Regarding `CCCCCCCCCCC(=O)O` [Undecanoic acid], the remaining activity at 1.25 µM in test [1] (Well no.=4252) turned out to be 95.5%. Moreover, the remaining activity at 3.75 µM in test [2] (Well no.=4252) came out at 91.9%.
